Patent US10507207B2, “Non-nucleosidic inhibitors of reverse transcriptase as antagonists of cell proliferation and inducers of cell differentiation” (ISTITUTO SUPERIORE DI SANITA, priority 2001, dated 2019)

Legend:
Kasumi-1 cells [1] = assay: Growth, viable cell count; format: cell-based, human; settings: Kasumi-1, Nev 350 μM, 4 days
HT-29 = assay: FACS cell cycle analysis; format: cell-based, human; settings: after 72 h of nevirapine treatment
From the text: (§1) FIG. 3A. Cell cycle analysis in control and nevirapine-exposed cells. […] In the U343 glioma cell line, the cell cycle was separately analysed in the diploid cell fraction (representing about ⅔ of all cells) and in the remaining fraction (about ⅓) which develops aneuploidy. FIG. 3B. […] The filter was reprobed with anti-actin antibody to control equal loading (lower panel).

U343 Mg = assay: FACS cell cycle analysis; format: cell-based, human; settings: after 72 h of nevirapine treatment
From the text: as §1

MCF-7 = assay: FACS cell cycle analysis; format: cell-based, human; settings: after 72 h of nevirapine treatment
From the text: as §1

HL60 cells [2] = assay: Growth, viable cell count; format: cell-based, human; settings: HL60, Nev 350 μM, 4 days
cyclin D1 in HT-29 = assay: Western immunoblotting of cyclin D1; format: cell-based, human; settings: 72 h nevirapine vs non-exposed controls
From the text: as §1

cyclin D1 in MCF-7 = assay: Western immunoblotting of cyclin D1; format: cell-based, human; settings: 72 h nevirapine vs non-exposed controls
From the text: as §1

Kasumi-1 cells [3] = assay: Differentiation of AML cells poorly sensitive to RA; format: cell-based, human; settings: nevirapine treatment
AML #2 [4] = assay: Growth, viable cell count; format: cell-based, human; settings: AML #2, Nev 350 μM, 4 days
HL60 cells [5] = assay: NBT dye reduction assay; format: cell-based, human; settings: HL60, Nev 350 μM, 4 days
[6] = test system: human acute myeloid leukemia (AML) cells; assay: NBT dye reduction assay, summary over Table 2; format: cell-based; settings: nevirapine treatment vs control (Table 2)
HL60 cells [7] = assay: Morphological differentiation, Wright-Giemsa staining; format: cell-based, human; settings: five days of nevirapine treatment (400 μM)
AML #2 [8] = assay: NBT dye reduction assay; format: cell-based, human; settings: AML #2, Nev 350 μM, 4 days
primary AML blasts = assay: Differentiation of AML cells poorly sensitive to RA; format: cell-based, human; settings: nevirapine treatment
[9] = test system: Saos-2 osteosarcoma cells; assay: Cell proliferation by cell counting; format: cell-based, human; settings: 350 μM nevirapine vs control cultures
Procedure: (§2) Samples were withdrawn at specific times and cells were counted in nevirapine-exposed and control (DMSO-exposed) cultures. […] Saos-2 osteosarcoma cells were the most slowly responsive type, and only after 5 days of exposure did the growth rate begin to decrease compared to control cultures.
The effect of efavirenz was further tested in human HeLa adenocarcinoma and Saos-2 osteosarcoma cells. Both cell lines were cultured in the conditions described above (Example 6). To establish if prolonged exposure to the drug improved the effectiveness of growth inhibition, both cell lines were exposed to efavirenz in two subsequent cycles: during the 1st cycle cells were continuously exposed to 20 μM efavirenz for 5 days; cells were then diluted, reseeded again and the 2nd cycle exposure was initiated the following day with fresh drug. […] The inhibitory effect was time-dependent, since in both HeLa and Saos-2 cultures, the 1st cycle of exposure (5 days) yielded a 1.6- and 1.5-fold reduction, respectively, whereas a 5- and 4-fold reduction was obtained in the 2nd cycle (carried out until day 20 from the onset of exposure).

AML #1 = assay: Growth, viable cell count; format: cell-based, human; settings: AML #1, Nev 350 μM, 4 days
NB4 cells [10] = assay: Growth, viable cell count; format: cell-based, human; settings: NB4, Nev 350 μM, 4 days
endogenous RT activity = assay: PCR-based functional RT activity assay (MS2 RNA) with F9 lysate; format: biochemical, murine; settings: cell lysate pre-incubated with 100 μM
From the text: FIG. 1: Reverse transcriptase in murine and human cell lines. FIG. 1A. […] Lanes M, DNA molecular weight markers; lane 23, positive control reaction with commercial Rt. FIG. 1B. Western analysis of RT proteins (upper panels) and α-tubulin (lower panels) in WCE and nuclei. WCE were from: F9 (lane 1), NIH/3T3 (lane 2), MCF7 (lane 3), MDA-231 (lane 4), NB4 (lane 5), HL60 (lane 6) and ML2 blasts (lane 7). Nuclear extracts were from: F9 (lane 1), MCF7 (lane 2), MDA-231 (lane 3), NIH 3T3 (lane 4), HL60 (lane 5) and NB4 (lane 6).
The RT enzymatic activity, which is the target of the inhibitors described herein, has been detected in all cell lines, of both murine and human origin, that have been tested in this work using a PCR-based assay. […] The presence of RT enzyme in tumor cells is further confirmed by Western blot analysis.

early mouse embryos = assay: Early mouse embryo cultures from in vitro fertilization (IVF) assays; settings: added to cultures of IVF embryos; preliminary studies
F9 teratocarcinoma cells = assay: Cell proliferation by cell counting; format: cell-based, murine; settings: 350 μM nevirapine, after 120 h of exposure
Procedure: NIH/3T3 embryo fibroblasts and F9 teratocarcinoma cells were cultured in DMEM containing 10-20% fetal serum and two concentrations of efavirenz, i.e. 10 and 20 μM, diluted from a stock solution (10 mM) in 100% DMSO. Cells were plated at a density of 2-5×10^4 in 35 mm Petri dishes and exposed to efavirenz 5-6 hours later. Samples were withdrawn at specific times and cells were counted in efavirenz-exposed compared to parallel non-exposed cell cultures.

teratocarcinoma F9 cells = assay: Differentiation of F9 cells (morphology, collagen type IV immunofluorescence); format: cell-based, murine; settings: IF after 96 h
Procedure: After 96 h, samples were fixed and processed for IF of collagen type IV (α1) chain (FIG. 5c, FIG. 5g, FIG. 5k) and DAPI staining of nuclei (FIG. 5b, FIG. 5f, FIG. 5j); pictures are merged in FIG. 5d, FIG. 5h and FIG. 5l (100× objective).

cyclin D1 in NIH/3T3 = assay: Western immunoblotting of cyclin D1; format: cell-based, murine; settings: 72 h nevirapine vs non-exposed controls
From the text: as §1

Kasumi-1 cells [11] = assay: NBT dye reduction assay; format: cell-based, human; settings: Kasumi-1, Nev 350 μM, 4 days
NB4 cells [12] = assay: Morphological differentiation, Wright-Giemsa staining; format: cell-based, human; settings: five days of nevirapine treatment (400 μM)
[13] = test system: murine and human cell lines; assay: Cell proliferation by cell counting, all cell lines; format: cell-based; settings: 350 μM nevirapine vs DMSO control
Procedure: Cells were cultured with (dashed line) and without (DMSO, solid line) nevirapine. The proliferation rate is expressed as the ratio of counted cells at the indicated times relative to the initial number of seeded cells, taken as 1. Points represent the mean value and bars the standard deviation from at least three independent assays for all cell types.
as §2

SMILES: Cc1ccnc2c1NC(=O)c1cccnc1N2C1CC1 [nevirapine, 5,11-dihydro-11-cyclopropyl-4-methyl-6H-dipyrido-[3,2-b:2′,3′-e][1,4]diazepin-6-one]
- Viable cells N^0 × 10^5 (Kasumi-1 cells [1]): 4.5 ± 0.9 × 10^5
- cells with a G0/G1 DNA content (HT-29): accumulated
- cells with a G0/G1 DNA content (U343 Mg): accumulated
- cells with a G0/G1 DNA content (MCF-7): accumulated
- Viable cells N^0 × 10^5 (HL60 cells [2]): 4.7 ± 1.1 × 10^5
- cyclin D1 levels (cyclin D1 in HT-29): substantial decrease
- cyclin D1 levels (cyclin D1 in MCF-7): substantial decrease
- differentiation (morphological, functional, immunophenotypic) (Kasumi-1 cells [3]): triggering differentiation
- Viable cells N^0 × 10^5 (AML #2 [4]): 1.2 ± 0.1 × 10^5
- NBT+ (%) (HL60 cells [5]): 37.8 ± 2.5%
- increase in the number of positive cells in the NBT dye reduction assay [6]: 2.0-3.5 fold
- morphology (HL60 cells [7]): myelomonocytic-like morphology was evident
- NBT (%) (AML #2 [8]): 68.1 ± 1.4%
- differentiation (morphological, functional, immunophenotypic) (primary AML blasts): triggering differentiation
- exposure after which the growth rate begins to decrease [9]: 5 days
- Viable cells N^0 × 10^5 (AML #1): 0.6 ± 0.1 × 10^5
- Viable cells N^0 × 10^5 (NB4 cells [10]): 2.6 ± 0.4 × 10^5
- RT activity, 112 bp-product (endogenous RT activity): abolished
- development of early mouse embryos (early mouse embryos): early and effective developmental arrest
- reduction in the proliferation rate (F9 teratocarcinoma cells): 5 fold
- synthesis of collagen type IV(α1) chain (teratocarcinoma F9 cells): increased synthesis
- cyclin D1 levels (cyclin D1 in NIH/3T3): substantial decrease
- NBT+ (%) (Kasumi-1 cells [11]): 31.2 ± 1.1%
- morphology (NB4 cells [12]): myelomonocytic-like morphology was evident
- rate of proliferation [13]: decreases the rate of proliferation in all cell lines
